In data set [1] the test system is penile erection in patients with previously diagnosed ED. The data set is described as follows: Erectile response (Rigiscan tumescence and rigidity) after intracavernous injection, patients with no prior PGE1. The format is in vivo, human. The conditions noted are these: Phase 1 (n=9).
Data set [2] has as its system penile pain in patients with previously diagnosed ED. The data set is described as follows: Patient-reported drug-related pain after intracavernous injection, patients with no prior PGE1. As to conditions: Phase 2; IC PGE1 5 and 15 μg alone or with SNP 50 μg. Type of data set: in vivo, human. The procedure:
Patients were fifted with the Rigiscan™ tumescence and rigidity recording device. The patients were injected with the intracavernous (IC) drug using up to 2 different doses (PGE1 alone or in combination with sodium nitroprusside (SNP50 μg)) and monitored in real-time for their erectile response. Patients were only given a second injection (higher dose PGE1) if the response to the first injection was less than 70% of maximum tumescence and rigidity. In addition, patients were asked to report any occurrence of pain specific to the injection, but not related to acute discomfort associated with the needle prick.

Data set [3] deals with penile pain in patients with prior use of PGE1. Kind of data set: Penile pain in patients with clinical history of pain with prostaglandin therapy (case reports). As to conditions: human, in vivo. The procedure: (§1) As detailed below, one of three different modes of administration of NO producing agents were used depending upon the patient. In particular, each of these individuals received a NO donor either through the use of a nitrospray such as Nitrolingual™ or a transdermal patch delivering a NO donor compound, and in three cases, a combination of PGE1 and 50 μg of SNP (in saline or phosphate buffered saline (PBS)).

Data set [4] relates to penile erection in patients with prior use of PGE1. The data set is described as follows: Erection in patients with clinical history of pain with prostaglandin therapy (case reports). Type of data set: in vivo, human. The conditions noted are these: Case No. 2; 10 μg PGE1 at home. The procedure: as §1
Data set [5] relates to penile pain in patients using PGE1. As to conditions: cited from earlier work.
In data set [6] the test system is human cavernous artery and cavernosal smooth muscle. As to conditions: cited from earlier work; for interaction of relaxant effects of the two agents: human cavernous artery and cavernosal smooth muscle; for relaxation response: isolated cavernous artery and corpus cavernosum.
The conditions of data set [7]: in vivo; cited from earlier work.

“And” between values parts separate entries of the source, which are not always exact repeats. Equal entries are not always repeated. No end group written: not given here.

With `CCCCC[C@H](O)/C=C/[C@H]1[C@H](O)CC(=O)[C@@H]1CCCCCCC(=O)O` [PGE1, prostaglandin E1], the “patients with a poor response to both injections” value in data set [1] (IC PGE1 5 μg at 1st visit, PGE1 5 μg+SNP 50 μg at 2nd visit) was 4 of 9. Moreover, the “patients who experienced full tumescence” value in data set [1] (lowest dose of PGE1 alone (5 μg IC)) is listed as 2/9. In addition, in data set [2], the “patients who experienced drug-related pain” value is on record as “None”. In addition, the duration of pain result in data set [3] is “three to four hours”. The erectile response result in data set [4] is “poor response”. The “patients reporting a pain response” value in data set [5] (repeated / prolonged use of PGE1) is 40 to 45% and 40-45%. For the same compound, the “individuals with a pain response / frequency of pain per injection” value in data set [5] (single use of PGE1) was 3 to 10%. Besides, the “men reporting penile pain” value in data set [5] (transurethral administration, clinic testing) is recorded as 35.7%.

With `[NH-]c1c[n+](N2CCOCC2)no1` [SIN-1, 3-morpholinosydnonimine molsidomine], in data set [6], the “interaction of relaxant effects of the two agents” value is recorded as “non-synergistic independent relaxant effects” and the relaxation response entry is “capacity to induce complete relaxations”.

In the case of `O=[N+]([O-])OCC(CO[N+](=O)[O-])O[N+](=O)[O-]` [glyceryl trinitrate], the concentration in plasma in data set [7] was 200 to 400 pg/mL.

Regarding “vasoactive intestinal peptide (HSDAVFTDNYTRLRKQMAVKKYLNSILN; ends and bridges not checked; UniProt P01282 125-152, looked up) [VIP]”, in data set [6], the “interaction of relaxant effects of the two agents” value was “non-synergistic independent relaxant effects” and the relaxation response result is given as “not capable of causing concentration dependent relaxation responses”.

Values taken from US6747063B2, “Combination therapy for treatment of erectile dysfunction” (Cellegy Pharmaceuticals, Inc., priority 1996, dated 2004).
